Patent EP3294317B1, “ENHANCED ANTIBIOTIC COMPOSITION” (Universitat Autònoma de Barcelona, priority 2015, dated 2016)

Tests used:
A. baumannii 6963 [1] = assay: Broth microdilution MIC of other antibiotics with potentiator compounds, clinical isolates (Example 4); format: cell-based, Acinetobacter baumannii; settings: MIC in 1.0% DMSO / MIC with 0.1 mM compound and 1.0% DMSO
Procedure: (§1) Following the procedure of Example 3, ciprofloxacin, amikacin, levofloxacin, imipenem and the combination trimethoprim/sulfamethoxasole (1:19) were tested. All were purchased from Sigma-Aldrich Co.
(§2) Minimal inhibitory concentration (MIC) of the antibiotic or the test combinations were determined by the broth microdilution method.
(§3) Antibiotic stock solutions were prepared according to CLSI recommendations and sterilizing by passage through 0.20 µm filters.
(§4) Antimicrobial susceptibility testing of these isolates was performed using the broth microdilution (BMD) method, according to CLSI guidelines.
(§5) The fold increase in bacterial susceptibility to antibiotics when combined with the potentiator compound (expressed as MIC in the presence of 1.0% DMSO / MIC in the presence of 0.1 mM of each potentiator compound and 1.0% DMSO) are shown in Table 7: […]

A. baumannii 6799 [2] = assay: as above; format: cell-based, Acinetobacter baumannii
Procedure: as §1, §2, §3, §4, §5

S. maltophilia 197 = assay: Colistin broth microdilution MIC with potentiator compounds, resistant clinical isolates (Example 3); format: cell-based, Stenotrophomonas maltophilia
Procedure: (§6) The potentiator effect of the compound of the invention and other compounds disclosed herein was tested using colistin sulfate as antibiotic and in combination with the enhancer compounds in front of resistant clinical isolates.
(§7) Tests were performed to determine the potentiator effect of the compound of the invention and other compounds disclosed herein with multidrug-resistant S. maltophilia and A. baumannii clinical strains as shown in Table 5: TABLE 5
(§8) For this experiment the potentiator compound was added to a colistin broth microdilution assay at a final concentration of 0.1mM. MICs were determined as described in the Example 1.
as §5, with “Colistin minimal inhibitory concentration (MIC), expressed in µg/mL, and the” for “The”, “colistin” for “antibiotics”, “6:” for “7:”

S. maltophilia D457 = assay: as above; format: cell-based, Stenotrophomonas maltophilia; settings: MIC in the presence of 1.0% DMSO / MIC in the presence of 0.1 mM compound and 1.0% DMSO, positive = increased susceptibility, 1 = no effect
Procedure: as §6, §7, §8
as §5, with “Colistin minimal inhibitory concentration (MIC), expressed in µg/mL, and the” for “The”, “colistin” for “antibiotics”, “6:” for “7:”

S. maltophilia 257 [3] = assay: as above; format: cell-based, Stenotrophomonas maltophilia; settings: MIC in the presence of 1.0% DMSO / MIC in the presence of 0.1 mM compound and 1.0% DMSO, positive = increased susceptibility, 1 = no effect
Procedure: as §6, §7, §8
as §5, with “Colistin minimal inhibitory concentration (MIC), expressed in µg/mL, and the” for “The”, “colistin” for “antibiotics”, “6:” for “7:”

S. maltophilia 53149 = assay: as above; format: cell-based, Stenotrophomonas maltophilia; settings: MIC in the presence of 1.0% DMSO / MIC in the presence of 0.1 mM compound and 1.0% DMSO, positive = increased susceptibility, 1 = no effect
Procedure: as §6, §7, §8
as §5, with “Colistin minimal inhibitory concentration (MIC), expressed in µg/mL, and the” for “The”, “colistin” for “antibiotics”, “6:” for “7:”

S. maltophilia M30 = assay: as above; format: cell-based, Stenotrophomonas maltophilia
Procedure: as §6, §7, §8
as §5, with “Colistin minimal inhibitory concentration (MIC), expressed in µg/mL, and the” for “The”, “colistin” for “antibiotics”, “6:” for “7:”

P. aeruginosa ATCC 27853 = assay: Broth microdilution MIC of other antibiotics with potentiator compounds (Example 2); format: cell-based, Pseudomonas aeruginosa; settings: any of ciprofloxacin, amikacin, levofloxacin, tigecycline, imipenem, TMP/SMX (1:19), 0.1 mM potentiator, 1.0% DMSO, 'none' = no antibiotic potentiated
Procedure: (§9) Following the procedure of Example 1, ciprofloxacin, amikacin, levofloxacin, tigecycline, imipenem and the combination trimethoprim/sulfamethoxasole (1:19) were tested. All were purchased from Sigma-Aldrich Co.
as §2, §3, §4
(§10) The fold increase in bacterial susceptibility to antibiotics when combined with the potentiator compound (expressed as MIC in the presence of 1.0% DMSO / MIC in the presence of 0.1 mM of each potentiator compound and 1.0% DMSO) are shown in Table 4: […]

A. baumannii 6963 [4] = assay: Colistin broth microdilution MIC with potentiator compounds, resistant clinical isolates (Example 3); format: cell-based, Acinetobacter baumannii; settings: MIC in the presence of 1.0% DMSO / MIC in the presence of 0.1 mM compound and 1.0% DMSO, positive = increased susceptibility, 1 = no effect
Procedure: as §6, §7, §8
as §5, with “Colistin minimal inhibitory concentration (MIC), expressed in µg/mL, and the” for “The”, “colistin” for “antibiotics”, “6:” for “7:”

A. baumannii 6799 [5] = assay: as above; format: cell-based, Acinetobacter baumannii; settings: MIC in the presence of 1.0% DMSO / MIC in the presence of 0.1 mM compound and 1.0% DMSO, positive = increased susceptibility, 1 = no effect
Procedure: as §6, §7, §8
as §5, with “Colistin minimal inhibitory concentration (MIC), expressed in µg/mL, and the” for “The”, “colistin” for “antibiotics”, “6:” for “7:”

[6] = tested on: Escherichia coli ATCC 9637; assay: Colistin broth microdilution MIC with potentiator compounds (Example 1); format: cell-based; settings: E. coli ATCC 9637; MIC in the presence of 1.0% DMSO / MIC in the presence of 0.1 mM potentiator compound and 1.0% DMSO; positive = increased, negative = decreased susceptibility, 1 = no effect
[7] = tested on: S. maltophilia ATCC 13637; assay: Broth microdilution MIC of other antibiotics with potentiator compounds (Example 2); format: cell-based, Stenotrophomonas maltophilia
Procedure: as §9, §2, §3, §4, §10

S. maltophilia OC323 = assay: Colistin broth microdilution MIC with compound of formula I prepared in methanol or DMSO (Example 6); format: cell-based, Stenotrophomonas maltophilia; settings: MIC in the presence of 1.0% DMSO / MIC in the presence of 0.1 mM of compound of formula I and 1.0% DMSO
Procedure: (§11) The potentiator effect of the compound of the invention in a new formulation was tested by using colistin sulphate as antibiotic in combination with the enhancer compound of formula I in front of resistant clinical isolates. […]
(§12) Tests were performed to determine the potentiator effect of the compound of the invention with two colistin resistant S. maltophilia strains as shown in Table 9. S. maltophilia K279a is a reference clinical strain. The origin of clinical strain OC323 together with K279a has been described previously (Huedo et al., Two Different rpf Clusters Distributed among a Population of Stenotrophomonas maltophilia Clinical Strains Display Differential Diffusible Signal Factor Production and Virulence Regulation, J. Bacteriol., 2014, 196, 2431-2442).
(§13) Selected compound of formula I was first dissolved in 100% of Methanol (HPLC Gradient Grade CHROMASOLV. Sigma, 34885-1L-R) to 10 mM. The compound was fairly soluble in methanol up to 10 mM and required vigorous vortex.
(§14) […] MICs were determined as described in the Example 1.
(§15) Strains colistin minimal inhibitory concentration (MIC), expressed in µg/mL, and the fold increase in bacterial susceptibility to colistin when combined with the potentiator compound previously dissolved in methanol ([…]) are shown in Table 9: TABLE 9

S. maltophilia K279a = assay: as above; format: cell-based, Stenotrophomonas maltophilia; settings: MIC in the presence of 1.0% DMSO / MIC in the presence of 0.1 mM of compound of formula I and 1.0% DMSO
Procedure: as §11, §12, §13, §14, §15

S. maltophilia 257 [8] = assay: Broth microdilution MIC of other antibiotics with potentiator compounds, clinical isolates (Example 4); format: cell-based, Stenotrophomonas maltophilia; settings: MIC in 1.0% DMSO / MIC with 0.1 mM compound and 1.0% DMSO
Procedure: as §1, §2, §3, §4, §5

[9] = tested on: Acinetobacter baumannii ATCC 15308; assay: Colistin broth microdilution MIC with potentiator compounds (Example 1); format: cell-based; settings: A. baumannii ATCC 15308; MIC in the presence of 1.0% DMSO / MIC in the presence of 0.1 mM potentiator compound and 1.0% DMSO; positive = increased, negative = decreased susceptibility, 1 = no effect
[10] = MIC in 1.0% DMSO / MIC with 0.1 mM compound and 1.0% DMSO
[11] = MIC in the presence of 1.0% DMSO / MIC in the presence of 0.1 mM compound and 1.0% DMSO, positive = increased susceptibility, 1 = no effect
[12] = MIC in 1.0% DMSO / MIC with 0.1 mM potentiator compound and 1.0% DMSO

In the case of `CN(C)CCNC(=O)c1cccc(CNC(=O)Nc2ccc3c(c2)Cc2ccccc2-3)c1` [I, N-[2-(dimethylamino)ethyl]-3-[(9H-fluoren-2-ylcarbamoylamino)methyl]benzamide], the “Fold increase in bacterial susceptibility to Ciprofloxacin” value (shortened to “Fold increase … to Ciprofloxacin”) (A. baumannii 6963 [1]) was “Ciprofloxacin (2) Levofloxacin (2) Imipenem (2) fold”, the “Fold increase in bacterial susceptibility to Imipenem” value (A. baumannii 6963 [1]) was “Ciprofloxacin (2) Levofloxacin (2) Imipenem (2) fold” and the “Fold increase in bacterial susceptibility to Levofloxacin” value (from here on “Fold increase … to Levofloxacin”) (A. baumannii 6963 [1]) was “Ciprofloxacin (2) Levofloxacin (2) Imipenem (2) fold”. The “Fold increase in bacterial susceptibility to Amikacin” value (A. baumannii 6799 [2]; [10]) was 2 fold, the “Fold increase … to Ciprofloxacin” value (A. baumannii 6799 [2]; [10]) was 8 fold and the “Fold increase in bacterial susceptibility to Imipenem” value (A. baumannii 6799 [2]; [10]) was 4 fold. For the same compound, the “Fold increase … to Levofloxacin” value (A. baumannii 6799 [2]; [10]) was 2 fold, the “Fold increase in bacterial susceptibility to TMP/SMX” value (A. baumannii 6799 [2]; Trimethoprim:sulfamethoxazole 1:19, MIC in 1.0% DMSO / MIC with 0.1 mM compound and 1.0% DMSO) was 2 fold and the “Colistin susceptibility category according to the CLSI criteria in the presence of the compound” value (S. maltophilia 197; 0.1 mM compound) was “become sensitive to colistin”. The “Fold increase in bacterial susceptibility to colistin” value (“Fold increase … to colistin” for short) (S. maltophilia 197; [11]) was “+32 fold”, the “Fold increase … to colistin” value (S. maltophilia D457) was “+2 fold” and the “Fold increase … to colistin” value (S. maltophilia 257 [3]) was “+4 fold”. For the same compound, the “Fold increase … to colistin” value (S. maltophilia 53149) was “+4 fold”, the “Colistin susceptibility category according to the CLSI criteria in the presence of the compound” value (S. maltophilia M30; 0.1 mM compound) was “become sensitive to colistin” and the “Fold increase … to colistin” value (S. maltophilia M30; [11]) was “+8 fold”. For the same compound, the “Fold increase in bacterial susceptibility to antibiotic indicated” value (P. aeruginosa ATCC 27853) was “none”, the “Fold increase … to colistin” value (A. baumannii 6963 [4]) was over 4 fold and the “Fold increase … to colistin” value (A. baumannii 6799 [5]) was “+8 fold”. The “Fold increase … to colistin” value [6] was “+2 fold”, the “Fold increase in bacterial susceptibility to Amikacin” value [7, 12] was 4 fold and the “Fold increase … to Ciprofloxacin” value [7, 12] was 2 fold. For the same compound, the “Fold increase … to Levofloxacin” value [7, 12] was 2 fold, the “Fold increase in bacterial susceptibility to TMP/SMX” value ([7]; Trimethoprim:sulfamethoxazole 1:19, MIC in 1.0% DMSO / MIC with 0.1 mM potentiator compound and 1.0% DMSO) was 2 fold and the “Fold increase … to colistin” value (S. maltophilia OC323) was “+4 fold”. For the same compound, the “Fold increase … to colistin” value (S. maltophilia K279a) was “+4 fold”, the “Fold increase … to Levofloxacin” value (S. maltophilia 257 [8]) was “Levofloxacin (2) fold” and the “Fold increase … to colistin” value [9] was “+4 fold”.
